According to patent publication US6436705B1, “Shape stabilized erythrocytes” (The United States of America as represented by the …, priority 1997, dated 2002):

Tests used:
[1] = system: erythrocytes; assay: Methemoglobin formation during freeze-drying; format: cell-based; settings: CO-treated erythrocytes, FIG. 1
Excerpt: Freeze-drying of hemoglobin leads to the formation of significant amount of methemoglobin. Circular dichroism studies for samples of hemoglobin freeze-dried with or without protectant have shown that the absence of a protector weakly influences the confirmation in the vicinity of the heme and increases the helicity of protein chains (Thirion C et al., 1983). Freeze-drying hemoglobin without denaturing and oxidizing it was made possible by the use of carbohydrates (Labrude PB et al., 1980). […] Since red cell membrane is non-permeable to disaccharides and only lowly permeable to monosaccharides, this limits the use of carbohydrates as protectants for intracellular hemoglobin. We explored CO-treatment as a means to prevent methemoglobin formation during freeze-drying. CO-treatment stabilizes hemoglobin in the CO-hemoglobin form by liganding CO. […] To reverse the CO-treatment, a hollow fiber oxygenator can be used.

[2] = system: Red cells; assay: Oxygen carrying ability (oxygen content by CO-oximeter); format: cell-based, human; settings: cells subjected to CO-treatment
Procedure: A semi-quantitative measure of oxygen carrying ability by DTBP cross-linked and reversed cells was performed. Red cells cross linked with 5 mM DTBP for different incubation times and cells reversed with DTT (see above) were processed through a membrane oxygenator to replace CO with oxygen. Oxygen saturation of the cells was measured using a CO-oximeter. After the oxygenation, cells were subjected to deoxygenation under a stream of nitrogen for 30 min. Percentage oxygen was measured again by the CO-oximeter. Oxygen binding and releasing properties for cross-linked, reversed and normal cells were compared.
We measured oxygen content (Vol%O2) of cells subjected to cross-linking and reversal with a CO-oximeter 282. […] CO-treated and cross-linked cells with 5 mM DTBP for 5 h, which underwent re-oxygenation in the membrane oxygenator had oxygen content of 7.3 Vol%O2.

[3] = system: Human erythrocytes; assay: 'gravity-driven' filtration assay of erythrocyte deformability (5 μm pore filter); format: cell-based
Procedure: The deformability of erythrocytes after crosslinking with diamide and its reversal with dithioerythritol is measured using a “gravity-driven” filtration assay. Diluted erythrocyte suspensions are passed through a 5 μm pore filter The relative filtration index is determined using the following expression: [formula] […] Human erythrocytes subjected to crosslinking with diamide and subsequent reversal of the crosslinking dithioeiythritol were passed through a 5 μm pore filter. Relative filtration index was determined.

[4] = system: Human erythrocytes; assay: cells; format: cell-based; settings: Homo sapiens, Erythrocyte, read-out: hemolysis in distilled water after cross-linking reversal
Procedure: Packed human erythrocytes from healthy donors were obtained from the National Naval Medical Center (Bethesda, Md.) within 48 h of donation and used within 7 days. Packed erythrocytes were washed twice in phosphate buffer solution (PBS) then re-suspended in PBS (1 vol PBS:1 vol packed cells). The erythrocyte suspension (100 ml) was placed on ice and carbon monoxide (CO) was bubbled through it for 2 hours. Saturation with CO (100%) was achieved under these conditions as detected with a CO-oximeter. Erythrocytes were packed and cross-linked with DTBP at 4° C. for different incubation times (from 1 to 24 h; 9 vol cross-linking solution: 1 vol packed cells). The cross-linking solution was prepared by dissolving DTBP in PBS (pH 7.8). After incubation DTBP was removed by repeated washing of the red cells in PBS (IEC Centra centrifuge for 10 min at 1008×g). Reversal of the cross-linking was carried out at room temperature with the reducing agent dithioerythritol (DTT) at a concentration of 10 mM in PBS (9 vol reducing solution: 1 vol packed cells) for 20 min or as indicated in the figure legends. DTT was removed by repeated washing of the red cells in PBS (IEC Centra centrifuge for 10 min at 1008×g). CO-treatment was reversed at room temperature using a hollow fiber membrane oxygenator model Capiox 308. Erythrocytes were processed through the oxygenator for 1 h. Saturation with oxygen (92%) was reached as detected with a CO-oximeter.
Erythrocytes were cross-linked with DTBP at different concentrations for different incubation times. 1 ml of the erythrocyte suspension was taken out at regular incubation times centrifuged and DTBP was removed (Eppendorf centrifuge for 3 min at 3000×g). Distilled water (1 ml) was added to the remaining packed cells. After 30 min the cells were again centrifugated (Eppendorf centrifuge for 3 min at 3000×g), and the supernatants were processed for hemolysis measurements. For determination of hemolysis the cyanmethemoglobin method was applied (see Brown in “Hematology: principles and procedures” pp. 29-31 (Lea and Febiger, eds., 1984)). Absorbance was measured at 540 nm and percent hemolysis was determined by Equation (1), supra, where the control sample was lysed in distilled water.
Erythrocyte stability in distilled water was tested after crosslinking reversal as well. Red blood cells were first cross-linked with DTBP then treated with DTT at different concentrations (from 1 to 10 mM) for different incubation times (from 5 to 20 min). Hemolysis in distilled water was measured as described above.

[5] = system: Red blood cells; assay: Deformability measurements with an ektacytometer (Shear-scan, Osmo-scan); format: cell-based, human; settings: DTBP cross-linked cells after treatment with DTT; Osmo-scan
Procedure: Red blood cells were cross-linked with 5 mM DTBP for 1 h. Cross-linking was reversed with 10 mM DTT for 20 min. Deformability measurements were made with fresh untreated, cross-linked, and reversed cells as well as with untreated packed cells stored in CPDA-1 for 6 weeks at 4° C. The effects of cross-linking and reversal on red blood cell deformability were measured with an ektacytometer (Technicon).
The ektacytometer is a laser diffraction viscometer described in detail by Bessiss and Mohandas. Intact red blood cells and ghosts suspended in solution produce a diffuse circular laser diffraction pattern. The instrument takes advantage of the fact that when a shear force is applied to the solution crossing the beam the cells align in the direction of shear and begin deforming into uniformly oriented ellipsoids. The laser diffraction pattern then takes on an ellipsoidal shape oriented 90° from the major elliptical cell axis, with the ratio of the long axis to the short axis length determined by the degree of cell deformation. A signal proportional to mean cellular ellipticity is derived from photometric measurement of this laser diffraction pattern in the two axis directions and is designated the deformability index (DI).
Two types of deformability profiles were generated in the present experiments. […] Shear-scans were run with 40 μl of concentrated cell suspension (80% hematocrit) mixed with 3.0 ml of 3.1% (w/v) polyvinylpyrrolidone (P, av-MW 360 kD) solution containing 138 mM NaCl, 6.34 mM Na2HPO4, 2 mM NaH2PO4, and 0.04% (w/v) NaN3 with pH=7.35±0.05, osmolality=290 mOsmol/kg (by freezing point depression), and viscosity=20 cp (assumed). Osmo-scans were run by continuous addition of this suspension medium containing 100 μl of cells to a PVP solution with a graded salt concentration. Salt gradients were made by addition of high salt PVP solution with 386 mM NaCI (osmolality=750 mOsmol/kg) to a low salt PVP solution with 2.5 mM NaCl (osmolality=40 mOsmol/kg). Conductance measurements of the cell suspension in the viscometer provided an indirect measure of osmolality, which was calculated from a standard calibration curve.
Data was recorded onto a computer, and curves were fitted and plotted using custom routines in Matlab (The Math Works Inc, Natick, Mass.). Shear scans were fitted with a polynomial of degree 6 from which the maximum DI (DImax) was calculated. Osmo-scans were fitted with a running average, and DImax was calculated within the range of 180-240 mOsmol/Kg, along with the osmolality corresponding to 1/2DImax at hypertonic salt concentrations (0′), where DI decreases with increasing intracellular viscosity secondary to cell shrinkage and increased hemoglobin concentration (see Mohandas et al., J. Clin. Invest. 66563-73(1980)). The osmolality corresponding to the minimum DI (Omin) at hypotonic salt concentrations, where DI falls due to cell swelling, was also calculated. The height of the small DI peak thought to be associated with the sudden availability of excess membrane for deformation as intracellular ions and water are lost in the lower range of hypotonic salt (63-125 mOsmol/Kg) concentrations was also recorded (see Clark et al., Blood 61 899-910 (1983)).

[6] = system: erythrocytes; assay: Assay of capacity for shape change (LPC-induced echinocytosis, microscopy); format: cell-based, human
Procedure: Microscopy. Cross-linked and reversed cells were prepared as described in the section on erythrocyte preparation, etc., with the addition of 0.5% bovine serum albumin to the solution prior microscopic examination. Cells were examined using an Nikon Optiphot, equipped with PlanApo 20×objective.
Assay of capacity for shape change. To induce echinocytosis ([…]), erythrocytes were incubated with 10μg/ml LPC for 2 min at room temperature. Erythrocytes were pretreated with 5 mM DTBP for 1 h and then subjected to 10 μg/ml LPC treatment. Microscopic examination of cell morphology was performed. Erythrocytes were pretreated with 5 mM DTBP for 1 h, reversed with 10 mM DTT for 20 min and then subjected to 10 μg/ml LPC treatment. Microscopic examination followed. Erythrocyte response to LPC of normal, cross-linked and reversed cells was compared.

[7] = system: Red blood cells; assay: Metabolic viability: ATP content of red blood cells over time; format: cell-based, human; settings: cross-linked cells treated with 10 mM DTT prior to initial glucose exposure
Procedure: The metabolic viability of cross-linked cells was assayed by monitoring the production and depletion of ATP over time. DTBP cells were cross-linked in 5 mM DTBP 150 mM glucose for 5 hours at 4° C. The cells were then washed 3 times and incubated in 150 mM glucose for an additional 19 hrs. After washing to remove the glucose the cells were incubated at 4° C. in PBS for 72 hrs before being returned to 150 mM glucose for the final 24 hr incubation. At each time point cells were removed, washed, and spectrophotometrically assayed for ATP as described in the text. The glucose controls were cells treated in the same manor but without crosslinking, and the control cells are cells without exposure to glucose.

[8] = system: Human erythrocytes; assay: Osmotic fragility test; format: cell-based; settings: cells treated for 1 h with 5 mM DTBP, reversed with DTT
Procedure: An osmotic fragility test (a common clinical test) was performed on erythrocytes cross-linked with 5 mM DTBP for different incubation times and on erythrocytes cross-linked and reversed with DTT. Briefly, 1 ml of the erythrocyte suspension was taken out at regular incubation times, centrifuged, and DTBP or DTT was removed (Eppendorf centrifuge for 3 min at 3000×g). 1 ml of solutions containing buffered sodium sodium chloride at different concentrations (from 1% to 0.1% NaCl in phosphate buffer) were added to the packed cells. After 30 min the samples were centrifugated (Eppendorf centrifuge for 3 min at 3000×g), and the supernatants were processed for hemolysis measurements.

[9] = system: Human erythrocytes; assay: Freeze-thaw damage (percentage hemolysis after freezing at −20° C.); format: cell-based; settings: 5 mM diamide for 1 h at room temperature; 1 h freezing at −20° C.; FIG. 2
Procedure: Erythrocytes pre-treated with diamide were frozen immediately or after 3 h of incubation in the freezing medium (glucose 200 mM, raffinose 139 mM, sodium citrate 33 mM, sodium phosphate dibasic 12 mM, sodium phosphate monobasic 2.9 mM, ammonium phosphate 40 mM, adenine 2 mM) to allow loading with glucose. Freezing was carried out at −20° C. in a freezer for […] and samples were thawed in a water bath at room temperature.
After completion of the freeze-thaw cycle samples were centrifugated. After centrifugation (Eppendorfcentrifuge for 3 min at 3000×g) the supernatants were processed for hemolysis measurements. For determination of hemolysis the Cyanmethemoglobin method was applied. Absorption was read at 540 nm using a Hewlett Packard spectrophotometer. Percentage hemolysis was determined by Equation 1, supra. Percentage hemolysis was taken as a measure for freeze-thaw damage.
Human erytirocytes were pre-treated at room temperature with 5 mM diamide for 1 h. After the incubation was completed the unreacted reagent was removed by a washing procedure and the cells were re-suspended in a freezing medium. Erythrocytes were frozen immediately or after three hours of incubation in the freezing medium to allow loading with glucose. Percentage hemolysis represents the freeze-thaw damage after 1 h freezing at −20° C. in a freezer.

In the case of `[C-]#[O+]` [CO, carbon monoxide], the “methemoglobin formation during freeze-drying” value [1] is reported as “prevents hemoglobin oxidation to methemoglobin” and the oxygen content [2] is reported as 0.7 Vol%O2.
`O[C@H](CS)[C@@H](O)CS` [DTT, dithioerythritol] was tested, and the Relative filtration index ([3]; diamide-crosslinked cells, reversal of the cross-linking with 5 mM dithioerythritol) was 0.83 ± 0.02, the Relative filtration index ([3]; diamide-crosslinked cells, reversal of the cross-linking with 10 mM dithioerythritol) was 0.90 ± 0.01 and the hemolysis at 10000 µM [4] was 100%. For the same compound, the “DImax and O′ after reversal” value [5] was “restored these indices towards normal values”, the “Omin (osmolality corresponding to the minimum DI)” value [5] was 128 mOsmol/Kg and the “reversal of shape stabilizing action of DTBP” value ([6]; 5 mM DTBP 1 h, 10 mM DTT 20 min, then 10 μg/ml LPC) was “completely reversible”. For the same compound, the “amount of ATP present after reversal” value [7] was “did not change the amount of ATP present” and the “reversal of the effect of DTBP on osmotic fragility” value [8] was “complete reversal”.
For `CN(C)C(=O)/N=N/C(=O)N(C)C` [diamide], the Relative filtration index ([3]; Crosslinking with 5 mM diamide, 5 μm pore filter) was 0.71 ± 0.03 and the “Percentage hemolysis (freeze-thaw damage)” value [9] was “cryoprotection of erythrocytes”.
In the case of lysolecithin [LPC], the “shape change of normal red blood cells” value ([6]; 10 μg/ml LPC, normal cells) is reported as “shape change from discocytes to echinocytes”.
